Measurements from US9321776B2, “Isochromene derivatives as phoshoinositide 3-kinases inhibitors” (CHIESI FARMACEUTICI S.p.A., priority 2013, dated 2016).
Counter-ions that a name gives are not always drawn.

Key:
Experiment in all cases: PI3K enzyme inhibitory activity in the cell free assay (ADP-Glo Kinase Assay)
Assay type in all cases: biochemical
[1] = molecular target: T1, PI3Kα (Homo sapiens, UniProt P42336); conditions: human recombinant PI3Kα, ATP 50 μM; read-out: PI3K alpha inhibition
T1 construct: purchased Millipore Ltd (Billerica, Mass.)

[2] = molecular target: T2, PI3Kβ (Homo sapiens, UniProt P42338); conditions: human recombinant PI3Kβ, ATP 100 μM; read-out: PI3K beta inhibition
T2 construct: purchased Millipore Ltd (Billerica, Mass.)

[3] = molecular target: T3, PI3Kδ (Homo sapiens, UniProt O00329); conditions: human recombinant PI3Kδ, ATP 80 μM; read-out: PI3K delta inhibition
T3 construct: purchased Millipore Ltd (Billerica, Mass.)
T3 sequence (O00329 1-1044): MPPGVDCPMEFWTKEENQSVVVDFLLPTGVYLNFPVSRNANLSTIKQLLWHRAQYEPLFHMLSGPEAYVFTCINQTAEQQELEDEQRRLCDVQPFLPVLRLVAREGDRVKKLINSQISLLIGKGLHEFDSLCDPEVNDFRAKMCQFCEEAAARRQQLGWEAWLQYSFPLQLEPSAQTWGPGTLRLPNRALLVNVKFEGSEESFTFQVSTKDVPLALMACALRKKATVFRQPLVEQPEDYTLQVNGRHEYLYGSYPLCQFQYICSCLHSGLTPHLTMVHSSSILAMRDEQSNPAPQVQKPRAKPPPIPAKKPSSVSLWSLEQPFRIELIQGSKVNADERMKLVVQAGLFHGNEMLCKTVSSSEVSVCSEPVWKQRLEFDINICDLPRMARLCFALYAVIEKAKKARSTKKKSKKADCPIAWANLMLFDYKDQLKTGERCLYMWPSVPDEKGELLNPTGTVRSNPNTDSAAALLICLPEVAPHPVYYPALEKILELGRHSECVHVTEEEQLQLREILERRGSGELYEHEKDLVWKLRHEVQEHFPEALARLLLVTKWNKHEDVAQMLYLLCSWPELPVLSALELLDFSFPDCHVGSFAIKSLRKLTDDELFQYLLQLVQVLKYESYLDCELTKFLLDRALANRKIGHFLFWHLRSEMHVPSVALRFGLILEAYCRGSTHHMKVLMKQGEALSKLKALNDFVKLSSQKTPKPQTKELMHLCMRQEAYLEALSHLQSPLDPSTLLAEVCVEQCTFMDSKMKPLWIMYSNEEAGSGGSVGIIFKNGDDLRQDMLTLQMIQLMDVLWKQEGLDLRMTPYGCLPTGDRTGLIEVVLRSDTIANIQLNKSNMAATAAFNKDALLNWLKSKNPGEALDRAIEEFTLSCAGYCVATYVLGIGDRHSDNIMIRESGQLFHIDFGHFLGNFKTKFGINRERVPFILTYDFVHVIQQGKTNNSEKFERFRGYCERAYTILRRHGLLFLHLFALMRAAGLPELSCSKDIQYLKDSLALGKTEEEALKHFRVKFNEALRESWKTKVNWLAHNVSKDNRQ

[4] = molecular target: T4, PI3Kγ (Homo sapiens, UniProt P48736); conditions: human recombinant PI3Kγ, ATP 30 μM; read-out: PI3K gamma inhibition
T4 construct: purchased Millipore Ltd (Billerica, Mass.)
T4 sequence (P48736 whole entry): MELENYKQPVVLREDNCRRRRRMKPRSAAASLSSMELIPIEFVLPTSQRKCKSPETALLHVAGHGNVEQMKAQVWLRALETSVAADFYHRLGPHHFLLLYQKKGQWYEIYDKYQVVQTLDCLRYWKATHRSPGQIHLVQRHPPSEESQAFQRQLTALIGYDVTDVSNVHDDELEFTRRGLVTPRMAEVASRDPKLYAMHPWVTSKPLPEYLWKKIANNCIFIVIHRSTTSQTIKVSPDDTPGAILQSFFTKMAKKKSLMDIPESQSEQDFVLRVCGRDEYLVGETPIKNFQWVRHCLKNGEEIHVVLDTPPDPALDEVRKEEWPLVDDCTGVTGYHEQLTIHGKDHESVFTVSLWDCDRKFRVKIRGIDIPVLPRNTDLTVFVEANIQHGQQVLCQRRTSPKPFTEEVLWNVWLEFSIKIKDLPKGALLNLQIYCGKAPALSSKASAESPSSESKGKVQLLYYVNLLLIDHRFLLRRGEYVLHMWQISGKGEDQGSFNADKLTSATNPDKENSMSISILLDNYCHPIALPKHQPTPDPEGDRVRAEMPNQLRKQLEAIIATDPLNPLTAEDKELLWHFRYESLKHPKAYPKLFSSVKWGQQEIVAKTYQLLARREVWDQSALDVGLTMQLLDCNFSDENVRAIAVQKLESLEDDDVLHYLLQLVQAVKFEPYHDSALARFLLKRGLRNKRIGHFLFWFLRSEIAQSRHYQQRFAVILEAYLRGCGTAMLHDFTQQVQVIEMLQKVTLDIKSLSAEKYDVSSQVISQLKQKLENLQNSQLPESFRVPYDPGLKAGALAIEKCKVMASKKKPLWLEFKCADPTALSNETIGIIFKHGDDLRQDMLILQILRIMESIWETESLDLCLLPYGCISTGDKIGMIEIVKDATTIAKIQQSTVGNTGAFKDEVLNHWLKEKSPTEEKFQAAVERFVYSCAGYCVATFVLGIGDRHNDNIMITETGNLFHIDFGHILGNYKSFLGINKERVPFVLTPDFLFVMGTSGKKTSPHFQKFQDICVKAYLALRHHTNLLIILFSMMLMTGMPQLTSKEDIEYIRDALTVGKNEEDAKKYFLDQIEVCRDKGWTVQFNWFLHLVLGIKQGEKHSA

T1 sequence (P42336 whole entry): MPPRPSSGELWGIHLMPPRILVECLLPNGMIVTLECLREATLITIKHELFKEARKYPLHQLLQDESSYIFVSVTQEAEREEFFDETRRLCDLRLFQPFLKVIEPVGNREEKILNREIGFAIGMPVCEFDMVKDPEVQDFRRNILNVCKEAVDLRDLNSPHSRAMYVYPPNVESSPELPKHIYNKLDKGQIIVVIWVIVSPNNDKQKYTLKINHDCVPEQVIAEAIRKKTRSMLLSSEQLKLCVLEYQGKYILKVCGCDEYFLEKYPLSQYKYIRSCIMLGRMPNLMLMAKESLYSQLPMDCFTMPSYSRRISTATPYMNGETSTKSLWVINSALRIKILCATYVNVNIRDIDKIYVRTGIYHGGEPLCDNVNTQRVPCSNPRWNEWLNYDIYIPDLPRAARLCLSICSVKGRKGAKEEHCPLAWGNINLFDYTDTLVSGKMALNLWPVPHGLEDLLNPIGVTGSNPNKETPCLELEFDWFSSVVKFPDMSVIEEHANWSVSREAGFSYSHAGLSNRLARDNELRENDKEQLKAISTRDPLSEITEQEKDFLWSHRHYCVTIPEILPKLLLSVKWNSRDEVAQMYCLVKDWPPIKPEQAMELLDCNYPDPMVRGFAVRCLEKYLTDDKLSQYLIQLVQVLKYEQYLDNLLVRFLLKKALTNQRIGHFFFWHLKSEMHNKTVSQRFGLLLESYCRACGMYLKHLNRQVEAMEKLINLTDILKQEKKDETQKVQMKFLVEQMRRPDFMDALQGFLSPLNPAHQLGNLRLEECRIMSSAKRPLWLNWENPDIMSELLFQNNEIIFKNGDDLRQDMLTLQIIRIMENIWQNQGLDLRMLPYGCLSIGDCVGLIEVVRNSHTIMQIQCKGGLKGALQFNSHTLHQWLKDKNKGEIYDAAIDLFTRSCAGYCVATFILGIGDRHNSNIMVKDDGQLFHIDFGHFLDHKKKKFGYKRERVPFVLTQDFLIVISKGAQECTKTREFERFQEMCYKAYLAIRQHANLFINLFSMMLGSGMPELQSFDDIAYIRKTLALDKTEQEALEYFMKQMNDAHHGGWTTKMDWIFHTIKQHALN
T2 sequence (P42338 whole entry): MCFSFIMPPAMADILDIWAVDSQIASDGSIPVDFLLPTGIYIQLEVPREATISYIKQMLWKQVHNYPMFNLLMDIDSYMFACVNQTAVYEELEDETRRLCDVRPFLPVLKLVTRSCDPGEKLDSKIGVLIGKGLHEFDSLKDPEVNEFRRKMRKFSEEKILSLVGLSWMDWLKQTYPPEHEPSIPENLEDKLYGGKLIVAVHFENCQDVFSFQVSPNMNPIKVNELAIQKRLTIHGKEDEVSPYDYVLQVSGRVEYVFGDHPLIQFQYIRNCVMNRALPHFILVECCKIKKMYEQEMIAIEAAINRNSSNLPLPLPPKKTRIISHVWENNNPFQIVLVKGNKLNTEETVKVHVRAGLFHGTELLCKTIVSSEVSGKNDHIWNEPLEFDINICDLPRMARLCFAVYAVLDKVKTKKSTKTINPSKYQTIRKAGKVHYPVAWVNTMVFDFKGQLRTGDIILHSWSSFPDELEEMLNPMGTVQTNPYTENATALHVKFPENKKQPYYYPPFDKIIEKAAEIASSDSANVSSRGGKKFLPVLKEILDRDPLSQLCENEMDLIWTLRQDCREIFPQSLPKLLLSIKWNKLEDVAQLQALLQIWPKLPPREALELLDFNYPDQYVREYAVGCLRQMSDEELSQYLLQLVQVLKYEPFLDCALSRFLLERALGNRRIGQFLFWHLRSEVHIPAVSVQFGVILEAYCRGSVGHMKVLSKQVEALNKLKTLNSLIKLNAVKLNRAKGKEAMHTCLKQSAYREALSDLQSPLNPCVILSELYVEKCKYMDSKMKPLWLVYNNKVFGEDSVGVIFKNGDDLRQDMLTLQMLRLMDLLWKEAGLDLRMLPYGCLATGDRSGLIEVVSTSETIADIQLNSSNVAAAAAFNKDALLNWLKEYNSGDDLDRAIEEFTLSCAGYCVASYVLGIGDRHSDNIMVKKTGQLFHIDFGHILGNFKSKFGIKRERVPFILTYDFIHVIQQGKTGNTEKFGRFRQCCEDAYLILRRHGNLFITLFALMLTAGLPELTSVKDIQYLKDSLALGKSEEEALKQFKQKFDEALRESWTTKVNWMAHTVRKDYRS

Row | SMILES | IC50 [1] [µM] | IC50 [2] [µM] | IC50 [3] [µM] | IC50 [4] [µM]
1 | CC(c1oc(=O)c2ccccc2c1-c1ccccc1)n1nc2ncnc(N)c2c1-c1cc(O)cc(F)c1 (centres unmarked) [Example 118, 3-(1-(4-amino-3-(3-fluoro-5-hydroxyphenyl)-2H-pyrazolo[3,4-d]pyrimidin-2-yl)ethyl)-4-phenyl-1H-isochromen-1-one] | 0.01 to 1 | > 1 | 0.01 to 1 | > 1
2 | CC(c1oc(=O)c2ccccc2c1-c1ccc(CCCN(C)C)s1)n1nc(-c2cc(O)cc(F)c2)c2c(N)ncnc21 (centres unmarked) [Example 136, 3-(1-(4-amino-3-(3-fluoro-5-hydroxyphenyl)-1H-pyrazolo[3,4-d]pyrimidin-1-yl)ethyl)-4-(5-(3-(dimethylamino)propyl)thiophen-2-yl)-1H-isochromen-1-one, Formate] | > 1 | 0.01 to 1 | < 0.01 | > 1
3 | CC(Nc1ncnc2[nH]cnc12)c1oc(=O)c2ccccc2c1-c1cncs1 (centres unmarked) [Example 117, 3-(1-(9H-purin-6-ylamino)ethyl)-4-(thiazol-5-yl)-1H-isochromen-1-one] | 0.01 to 1 | > 1 | < 0.01 | 0.01 to 1
4 | Nc1ncnc2c1c(-c1cncc(O)c1)nn2CC1=C(c2ccccc2)c2ccccc2CO1 [Example 129, 5-(4-amino-1-((4-phenyl-1H-isochromen-3-yl)methyl)-1H-pyrazolo[3,4-d]pyrimidin-3-yl)pyridin-3-ol] | 0.01 to 1 | 0.01 to 1 | 0.01 to 1 | > 1
5 | CC(c1oc(=O)c2ccccc2c1C1=CCCN(C2CCN(C)CC2)C1)n1nc(-c2cc(O)cc(F)c2)c2c(N)ncnc21 (centres unmarked) [Example 172, 3-(1-(4-amino-3-(3-fluoro-5-hydroxyphenyl)-1H-pyrazolo[3,4-d]pyrimidin-1-yl)ethyl)-4-(1-(1-methylpiperidin-4-yl)-1,2,5,6-tetrahydropyridin-3-yl)-1H-isochromen-1-one dihydrochloride] | 0.01 to 1 | 0.01 to 1 | 0.01 to 1 | 0.01 to 1
6 | CC(c1oc(=O)c2ccccc2c1C1=CCN(C2CNC2)CC1)n1nc(-c2cc(O)cc(F)c2)c2c(N)ncnc21 (centres unmarked) [Example 156, 3-(1-(4-amino-3-(3-fluoro-5-hydroxyphenyl)-1H-pyrazolo[3,4-d]pyrimidin-1-yl)ethyl)-4-(1-(azetidin-3-yl)-1,2,3,6-tetrahydropyridin-4-yl)-1H-isochromen-1-one dihydrochloride] | > 1 | 0.01 to 1 | < 0.01 | 0.01 to 1
7 | CC(c1oc(=O)c2ccccc2c1C1=CCNCC1)n1nc(-c2cc(O)cc(C(F)(F)F)c2)c2c(N)ncnc21 (centres unmarked) [Example 153, 3-(1-(4-amino-3-(3-hydroxy-5-(trifluoromethyl)phenyl)-1H-pyrazolo[3,4-d]pyrimidin-1-yl)ethyl)-4-(1,2,3,6-tetrahydropyridin-4-yl)-1H-isochromen-1-one formate] | > 1 | 0.01 to 1 | < 0.01 | > 1

Results, then the compound that gave them:

Row | IC50 [1] [µM] | IC50 [2] [µM] | IC50 [3] [µM] | IC50 [4] [µM] | SMILES
8 | 0.01 to 1 | 0.01 to 1 | < 0.01 | 0.01 to 1 | CC(c1oc(=O)c2ccccc2c1C1=CCN(Cc2ccncc2)CC1)n1nc(-c2cc(O)cc(F)c2)c2c(N)ncnc21 (centres unmarked) [Example 65, 3-(1-(4-amino-3-(3-fluoro-5-hydroxyphenyl)-1H-pyrazolo[3,4-d]pyrimidin-1-yl)ethyl)-4-(1-(pyridin-4-ylmethyl)-1,2,3,6-tetrahydropyridin-4-yl)-1H-isochromen-1-one hydrochloride]
9 | > 1 | 0.01 to 1 | < 0.01 | > 1 | CC(c1oc(=O)c2ccccc2c1-c1ccc(CN2CCCCC2)cc1)n1nc(-c2cc(O)cc(F)c2)c2c(N)ncnc21 (centres unmarked) [Example 141, 3-(1-(4-amino-3-(3-fluoro-5-hydroxyphenyl)-1H-pyrazolo[3,4-d]pyrimidin-1-yl)ethyl)-4-(4-(piperidin-1-ylmethyl)phenyl)-1H-isochromen-1-one, hydrochloride]
10 | > 1 | 0.01 to 1 | < 0.01 | 0.01 to 1 | CC(c1oc(=O)c2ccc(Cl)cc2c1-c1ccccc1)n1nc(-c2cc(O)cc(F)c2)c2c(N)ncnc21 (centres unmarked) [Example 164, 3-(1-(4-amino-3-(3-fluoro-5-hydroxyphenyl)-1H-pyrazolo[3,4-d]pyrimidin-1-yl)ethyl)-6-chloro-4-phenyl-1H-isochromen-1-one]
11 | 0.01 to 1 | 0.01 to 1 | < 0.01 | 0.01 to 1 | CC(c1oc(=O)c2ccccc2c1-c1cncs1)n1nc(-c2cc(O)cc(F)c2)c2c(N)ncnc21 (single isomer, unassigned) [Example 167a, 3-(1-(4-amino-3-(3-fluoro-5-hydroxyphenyl)-1H-pyrazolo[3,4-d]pyrimidin-1-yl)ethyl)-4-(thiazol-5-yl)-1H-isochromen-1-one single enantiomer]
12 | 0.01 to 1 | 0.01 to 1 | < 0.01 | 0.01 to 1 | CC(c1oc(=O)c2ccccc2c1C1=CCN(CC2CC2)CC1)n1nc(-c2cc(O)cc(F)c2)c2c(N)ncnc21 (centres unmarked) [Example 66, 3-(1-(4-amino-3-(3-fluoro-5-hydroxyphenyl)-1H-pyrazolo[3,4-d]pyrimidin-1-yl)ethyl)-4-(1-(cyclopropylmethyl)-1,2,3,6-tetrahydropyridin-4-yl)-1H-isochromen-1-one hydrochloride]
13 | 0.01 to 1 | 0.01 to 1 | < 0.01 | 0.01 to 1 | CC(c1oc(=O)c2ccccc2c1C1=CCCN(C)C1)n1nc(-c2cc(O)cc(F)c2)c2c(N)ncnc21 (centres unmarked) [Example 63, 3-(1-(4-amino-3-(3-fluoro-5-hydroxyphenyl)-1H-pyrazolo[3,4-d]pyrimidin-1-yl)ethyl)-4-(1-methyl-1,2,5,6-tetrahydropyridin-3-yl)-1H-isochromen-1-one hydrochloride]
14 | 0.01 to 1 | 0.01 to 1 | < 0.01 | 0.01 to 1 | CC(c1oc(=O)c2ccccc2c1-c1ccc(CN2CCN(CCO)CC2)s1)n1nc(-c2cc(O)cc(F)c2)c2c(N)ncnc21 (single isomer, unassigned) [Example 76b, 3-(1-(4-amino-3-(3-fluoro-5-hydroxyphenyl)-1H-pyrazolo[3,4-d]pyrimidin-1-yl)ethyl)-4-(5-((4-(2-hydroxyethyl)piperazin-1-yl)methyl)thiophen-2-yl)-1H-isochromen-1-one hydrochloride]
15 | 0.01 to 1 | 0.01 to 1 | < 0.01 | 0.01 to 1 | CC(c1oc(=O)c2ccccc2c1-c1ccc(CN2CCN(C)CC2)s1)n1nc(-c2cc(O)cc(F)c2)c2c(N)ncnc21 (centres unmarked) [Example 135, 3-(1-(4-amino-3-(3-fluoro-5-hydroxyphenyl)-1H-pyrazolo[3,4-d]pyrimidin-1-yl)ethyl)-4-(5-((4-methyl)piperazin-1-yl)methyl)thiophen-2-yl)-1H-isochromen-1-one, dihydrochloride]
16 | > 1 | 0.01 to 1 | < 0.01 | > 1 | CC(c1oc(=O)c2ccccc2c1-c1ccc(CN2CCCC2)cc1)n1nc(-c2cc(O)cc(F)c2)c2c(N)ncnc21 (centres unmarked) [Example 140, 3-(1-(4-amino-3-(3-fluoro-5-hydroxyphenyl)-1H-pyrazolo[3,4-d]pyrimidin-1-yl)ethyl)-4-(4-(pyrrolidin-1-ylmethyl)phenyl)-1H-isochromen-1-one, hydrochloride]
17 | > 1 | 0.01 to 1 | < 0.01 | 0.01 to 1 | CC(c1oc(=O)c2ccccc2c1-c1cccc(CCCN(C)C)c1)n1nc(-c2cc(O)cc(F)c2)c2c(N)ncnc21 (single isomer, unassigned) [Example 137b, 3-(1-(4-amino-3-(3-fluoro-5-hydroxyphenyl)-1H-pyrazolo[3,4-d]pyrimidin-1-yl)ethyl)-4-(3-(3-(dimethylamino)propyl)phenyl)-1H-isochromen-1-one single enantiomers]
